By EC50 is commonly meant the concentration needed to bring the measured effect to its halfway point. By CC50 is commonly meant the concentration giving 50% cytotoxicity. Higher therefore signals better tolerance by the cells.

Data set [1] relates to HBV replication in HepAD38 cells. The data set can be described thus: Anti-HBV replication assay in HepAD38 cells (QPCR of extracellular HBV DNA). In kind it is cell-based, HBV (genotype D, serotype ayw). Particulars: Hepatitis B virus, 168 h, 7 days incubation, extracellular HBV DNA by QPCR, read-out: Anti-HBV EC50. In a few lines:
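HepAD38 cells (HepG2 carrying tet-repressible HBV genotype D genome) induced by tetracycline withdrawal, treated 7 days at 37 °C with compound ([…], 1-log10 dilutions). Extracellular HBV DNA quantified by QPCR against a standard curve, normalised to DMSO; EC50 from 4-parameter fit.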

A short description of data set [2]: In vitro cytotoxicity assay (MTT cell viability) in HepG2 cells. Type of data set: cell-based, human. The settings on record: human. In short, it runs like this: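 Using MTT conversion as the viability measure, HepG2 cells were incubated with compounds for 7 days (30 μM to 1.0 nM). Absorbance at 492 nm was normalized to vehicle and fitted to give CC50.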

With `Cc1cc(NC(=O)c2c(C)c(C(=O)C(=O)NC(C)(C)C)n(C)c2C)cnc1F` [Example 112, 5-(2-(tert-butylamino)-2-oxoacetyl)-N-(6-fluoro-5-methylpyridin-3-yl)-1,2,4-trimethyl-1H-pyrrole-3-carboxamide], in data set [1], the EC50 fell in the range of 50 to 499 nM. In addition, the CC50 at 7 days in data set [2] is greater than 30000 nM.

With `Cc1cc(NC(=O)c2c(C)c(C(=O)C(=O)NC34CC5CC(CC3C5)C4)n(C)c2C)cnc1F` [Example 113, N-(6-fluoro-5-methylpyridin-3-yl)-5-(2-(((2R,3as,5S,6as)-hexahydro-2,5-methanopentalen-3a(1H)-yl)amino)-2-oxoacetyl)-1,2,4-trimethyl-1H-pyrrole-3-carboxamide], in data set [1], the EC50 was less than 50 nM. Moreover, the CC50 at 7 days in data set [2] is greater than 30000 nM.

As to `Cc1cc(NC(=O)c2c(C)c(C(=O)C(=O)NC34CC5CC(CC(O)(C5)C3)C4)n(C)c2C)cnc1F` [Example 114, N-(6-fluoro-5-methylpyridin-3-yl)-5-(2-(((1r,3s,5R,7S)-3-hydroxyadamantan-1-yl)amino)-2-oxoacetyl)-1,2,4-trimethyl-1H-pyrrole-3-carboxamide], in data set [1], the EC50 is less than 50 nM. The CC50 at 7 days in data set [2] was greater than 30000 nM.

`Cc1cc(NC(=O)c2c(C)c(C(=O)C(=O)NC(C)(C)C)n(CCF)c2C)ccc1F` [Example 115, 5-(2-(tert-butylamino)-2-oxoacetyl)-N-(4-fluoro-3-methylphenyl)-1-(2-fluoroethyl)-2,4-dimethyl-1H-pyrrole-3-carboxamide]: the EC50 in data set [1] was less than 50 nM. For the same compound, the CC50 at 7 days in data set [2] was greater than 30000 nM.

For `Cc1cc(NC(=O)c2c(C)c(C(=O)C(=O)NC(C)(C)CO)n(CCF)c2C)ccc1F` [Example 116, N-(4-fluoro-3-methylphenyl)-1-(2-fluoroethyl)-5-(2-((1-hydroxy-2-methylpropan-2-yl)amino)-2-oxoacetyl)-2,4-dimethyl-1H-pyrrole-3-carboxamide], the EC50 in data set [1] was less than 50 nM. The CC50 at 7 days in data set [2] is greater than 30000 nM.

For the compound `Cc1cc(NC(=O)c2c(C)c(C(=O)C(=O)NC(C)(C)C(N)=O)n(CCF)c2C)ccc1F` [Example 117, 5-(2-((1-amino-2-methyl-1-oxopropan-2-yl)amino)-2-oxoacetyl)-N-(4-fluoro-3-methylphenyl)-1-(2-fluoroethyl)-2,4-dimethyl-1H-pyrrole-3-carboxamide], the concentration giving a half-maximal response (EC50) in data set [1] was in the range of 50 to 499 nM. In data set [2], this compound gave a CC50 at 7 days greater than 30000 nM.

For the compound `Cc1cc(NC(=O)c2c(C)c(C(=O)C(=O)N[C@H]3C4CC5CC3C[C@](O)(C5)C4)n(CCF)c2C)ccc1F` [Example 118, N-(4-fluoro-3-methylphenyl)-1-(2-fluoroethyl)-5-(2-(((1R,2s,3S,5s,7s)-5-hydroxyadamantan-2-yl)amino)-2-oxoacetyl)-2,4-dimethyl-1H-pyrrole-3-carboxamide], the EC50 in data set [1] is less than 50 nM. In addition, in data set [2], the CC50 at 7 days was greater than 30000 nM.

Take `Cc1c(C(=O)Nc2ccc(F)nc2)c(C)n(C)c1C(=O)C(=O)NC(C)C(F)(F)F` (stereo not drawn) [Example 119, N-(6-fluoropyridin-3-yl)-1,2,4-trimethyl-5-(2-oxo-2-((1,1,1-trifluoropropan-2-yl)amino)acetyl)-1H-pyrrole-3-carboxamide]: the EC50 in data set [1] was less than 50 nM. For the same compound, in data set [2], the half-maximal cytotoxic concentration (CC50) at 7 days was greater than 30000 nM.

For the compound `Cc1c(C(=O)Nc2ccc(F)nc2)c(C)n(C)c1C(=O)C(=O)NC(C)(C)CO` [Example 120, N-(6-fluoropyridin-3-yl)-5-(2-((1-hydroxy-2-methylpropan-2-yl)amino)-2-oxoacetyl)-1,2,4-trimtehyl-1H-pyrrole-3-carboxamide], the EC50 in data set [1] fell in the range of 500 to 1000 nM. The CC50 at 7 days in data set [2] was greater than 30000 nM.

As to `Cc1c(C(=O)Nc2ccc(F)nc2)c(C)n(C)c1C(=O)C(=O)NC(C)(C)C(F)(F)F` [Example 121, N-(6-fluoropyridin-3-yl)-1,2,4-trimethyl-5-(2-oxo-2-((1,1,1-trifluoro-2-methylpropan-2-yl)amino)acetyl)-1H-pyrrole-3-carboxamide], the EC50 in data set [1] is less than 50 nM. The CC50 at 7 days in data set [2] is greater than 30000 nM.

As for `Cc1cc(NC(=O)c2c(C)c(C(=O)C(=O)N[C@H]3C4CC5CC3C[C@](O)(C5)C4)n(C)c2C)cnc1F` [Example 122, N-(6-fluoro-5-methylpyridin-3-yl)-5-(2-(((1R,2s,3S,5s,7s)-5-hydroxyadamantan-2-yl)amino)-2-oxoacetyl)-1,2,4-trimethyl-1H-pyrrole-3-carboxamide], the EC50 in data set [1] was less than 50 nM. In data set [2], this compound yielded a CC50 at 7 days greater than 30000 nM.

Regarding `CNC(=O)[C@@H](NC(=O)C(=O)c1c(C)c(C(=O)Nc2ccc(F)c(C)c2)c(C)n1C)C1CC1` [Example 123, (S)-5-(2-((1-cyclopropyl-2-(methylamino)-2-oxoethyl)amino)-2-oxoacetyl)-N-(4-fluoro-3-methylphenyl)-1,2,4-trimethyl-1H-pyrrole-3-carboxamide], the EC50 in data set [1] is 50 to 499 nM. In data set [2], this compound gave a CC50 at 7 days greater than 30000 nM.

Regarding `CNC(=O)[C@@H](NC(=O)C(=O)c1c(C)c(C(=O)Nc2ccc(F)c(C)c2)c(C)n1C)C1CCC1` [Example 124, (S)-5-(2-((1-cyclobutyl-2-(methylamino)-2-oxoethyl)amino)-2-oxoacetyl)-N-(4-fluoro-3-methylphenyl)-1,2,4-trimethyl-1H-pyrrole-3-carboxamide], the concentration giving a half-maximal response (EC50) in data set [1] was less than 50 nM. Besides, the CC50 at 7 days in data set [2] lay in the range of 5000 to 30000 nM.

As for `CNC(=O)[C@@H](NC(=O)C(=O)c1c(C)c(C(=O)Nc2ccc(F)c(C)c2)c(C)n1C)C1CCCC1` [Example 125, (S)-5-(2-((1-cyclopentyl-2-(methylamino)-2-oxoethyl)amino)-2-oxoacetyl)-N-(4-fluoro-3-methylphenyl)-1,2,4-trimethyl-1H-pyrrole-3-carboxamide], the EC50 in data set [1] is less than 50 nM. The CC50 at 7 days in data set [2] lay within 500 to 4990 nM.

Take `Cc1cc(NC(=O)c2c(C)c(C(=O)C(=O)NC3(CO)CC(F)(F)C3)n(C)c2C)ccc1F` [Example 126, 5-(2-((3,3-difluoro-1-(hydroxymethyl)cyclobutyl)amino)-2-oxoacetyl)-N-(4-fluoro-3-methylpheenyl)-1,2,4-trimethyl-1H-pyrrole-3-carboxamide]: the concentration giving a half-maximal response (EC50) in data set [1] is less than 50 nM. The CC50 at 7 days in data set [2] was greater than 30000 nM.

As for `Cc1cc(NC(=O)c2c(C)c(C(=O)C(=O)N[C@@H]3CC[C@@H](O)C3)n(C)c2C)ccc1F` [Example 127, N-(4-fluoro-3-methylphenyl)-5-(2-(((1R,3R)-3-hydroxycyclopentyl)amino)-2-oxoacetyl)-1,2,4-trimethyl-1H-pyrrole-3-carboxamide], in data set [1], the EC50 was less than 50 nM. Moreover, the CC50 at 7 days in data set [2] was greater than 30000 nM.

For the compound `Cc1cc(NC(=O)c2c(C)c(C(=O)C(=O)N[C@H]3COC[C@@H]3O)n(C)c2C)ccc1F` [Example 128, N-(4-fluoro-3-methylphenyl)-5-(2-(((3S,4R)-4-hydroxytetrahydrofuran-3-yl)amino)-2-oxoacetyl)-1,2,4-trimethyl-1H-pyrrole-3-carboxamide], the EC50 in data set [1] was less than 50 nM. This compound also came in with a CC50 at 7 days in data set [2] greater than 30000 nM.

For `Cc1cc(NC(=O)c2c(C)c(C(=O)C(=O)N[C@H]3C[C@H](O)C3)n(C)c2C)ccc1F` [Example 129, N-(4-fluoro-3-methylphenyl)-5-(22-(((1r,3r)-3-hydroxycyclobutyl)amino)-2-oxoacetyl)-1,2,4-trimethyl-1H-pyrrole-3-carboxamide], in data set [1], the EC50 was less than 50 nM. The compound also showed a CC50 at 7 days in data set [2] greater than 30000 nM.

With `Cc1cc(NC(=O)c2c(C)c(C(=O)C(=O)N[C@H]3COC[C@@H]3O)n(CCF)c2C)ccc1F` [Example 130, N-(4-fluoro-3-methylphenyl)-1-(2-fluoroethyl)-5-(2-(((3S,4R)-4-hydroxytetrahydrofuran-3-yl)amino)-2-oxoacetyl)-2,4-dimethyl-1H-pyrrole-3-carboxamide], the EC50 in data set [1] lay in the range of 50 to 499 nM. In data set [2], this compound returned a CC50 at 7 days greater than 30000 nM.

For `Cc1cc(NC(=O)c2c(C)c(C(=O)C(=O)N[C@H]3CCC[C@@H]3O)n(C)c2C)cnc1F` [Example 131, N-(6-fluoro-5-methylpyridin-3-yl)-5-(2-(((1S,2S)-2-hydroxycyclopentyl)amino)-2-oxoacetyl)-1,2,4-trimethyl-1H-pyrrole-3-carboxamide], the EC50 in data set [1] was in the range of 50 to 499 nM. Moreover, in data set [2], the half-maximal cytotoxic concentration (CC50) at 7 days is greater than 30000 nM.

For `Cc1cc(NC(=O)c2c(C)c(C(=O)C(=O)N[C@@H]3CCC[C@H]3O)n(C)c2C)cnc1F` [Example 132, N-(6-fluoro-5-methylpyridin-3-yl)-5-(2-(((1R,2R)-2-hydroxycyclopentyl)amino)-2-oxoacetyl)-1,2,4-trimethyl-1H-pyrrole-3-carboxamide], the 50% effective concentration (EC50) in data set [1] is 50 to 499 nM. In data set [2], this compound displayed a CC50 at 7 days greater than 30000 nM.

On to `Cc1c(C(=O)Nc2ccnc(F)c2)c(C)n(C)c1C(=O)C(=O)NC(C)(C)CO` [Example 133, N-(2-fluoropyridin-4-yl)-5-(2-((1-hydroxy-2-methylpropan-2-yl)amino)-2-oxoacetyl)-1,2,4-trimethyl-1H-pyrrole-3-carboxamide], for which the 50% effective concentration (EC50) in data set [1] was in the range of 50 to 499 nM. In data set [2], this compound yielded a CC50 at 7 days greater than 30000 nM.

For `Cc1c(C(=O)Nc2ccnc(F)c2)c(C)n(C)c1C(=O)C(=O)N[C@H]1CCC[C@@H]1O` [Example 134, N-(2-fluoropyridin-4-yl)-5-(2-(((1S,2S)-2-hydroxycyclopentyl)amino)-2-oxoacetyl)-1,2,4-trimethyl-1H-pyrrole-3-carboxamide], the EC50 in data set [1] lay within 50 to 499 nM. In data set [2], this compound displayed a CC50 at 7 days greater than 30000 nM.

Take `Cc1c(C(=O)Nc2ccc(F)cn2)c(C)n(C)c1C(=O)C(=O)NC12CC3CC(CC1C3)C2` [Example 135, N-(5-fluoropyridin-2-yl)-5-(2-(((2R,3as,5S,6as)-hexahydro-2,5-methanopentalen-3a(1H)-l)amino)-2-oxoacetyl)-1,2,4-trimethyl-1H-pyrrole-3-carboxamide]: in data set [1], the EC50 was 50 to 499 nM. In data set [2], this compound showed a half-maximal cytotoxic concentration (CC50) at 7 days of 5000 to 30000 nM.

(Values after patent US20190375708A1 (VenatoRx Pharmaceuticals, Inc., priority 2018, published 2019).)
